Assay results reported in patent publication US20050031537A1, “Multifunctional COX-2 inhibitors” (priority 2002, published 2005).

What was measured:
[1] = test system: HPV16 oncoproteins E6 and E7; experiment: Western and Northern blotting for HPV16 oncoproteins E6 and E7 (test (d)); assay type: cell-based, human papillomavirus; details: positive in CaSki and SiHa cells
Procedure: We turn now to the criterion (d), that is at least 50% downregulation of expression of HPV16 oncoproteins E6 and E7.
Protein E6 and E7 which are expressed by HPV16 are believed to play a major role in carcinogenesis.
Western blotting and Northern blotting techniques were used to evaluate the expression of HPV E6 and E7 proteins. The cell lines used for the study were CaSKi and SiHa. The cells were treated with the test compound and cell lysate was obtained as described above and subjected to Western blotting analysis. The Western blotting analysis was performed as described above except anti-HPV 16 E7 antibody was used to probe the blot. The antibody was obtained from Santa Cruz Biotechnology, Inc. CA. For Northern blotting, total cellular RNA was isolated from cell monolayers using an RNA isolation kit from QIAGEN Inc. after treatment with the test compound. 10 μg of total cellular RNA per lane were electrophoresed in a formaldehyde-containing 1.2% agarose gel and transferred to nylon-supported membranes. After baking, membranes were prehybridized overnight in a solution containing 50% formamide, 5×sodium chloride-sodium phosphate-EDTA buffer (SSPE), 5×Denhardt's solution, 0.1% SDS and 100 μg/ml single-stranded salmon sperm DNA and then hybridized for 12 h at 42° C. with radiolabeled cDNA probes for human HPV16 E6 or E7 cDNAs and 18S rRNA. E6 and E7 (as described in Woodworth, C. D., Cancer Res. 16, 4397-4402 (2000)) and 18S rRNA probes were labeled with [^32P]-CTP by random priming. After hybridization, membranes were washed twice for 20 min at room temperature in 2×SSPE-0.1% SDS, twice for 20 min in the same solution at 55° C., and twice for 20 min in 0.1×SSPE-0.1% SDS at 55° C. Washed membranes were then subjected to autoradiography.

PPRE luciferase = PPRE luciferase activation, transient transfection reporter assay (test (a)); assay type: cell-based, human; details: positive in 184B5, 184B5/HER, HCA7, HCT116, SKBR3 and BT474 cells; 24 h treatment
Excerpt: We turn now to criterion (a), that is activation of PPRE luciferase by at least 100%. PPRE-luciferase refers to a DNA construct containing the peroxisome proliferator activated receptor (PPAR) binding element joined to luciferase. Cells are transfected with PPRE-luciferase DNA. Ligands of PPAR induce luciferase activity. The ability of a test compound to stimulate PPRE-luciferase signifies that the test compound activates PPAR-mediated gene transcription. PPRE means peroxisome proliferator response element and the method by which PPRE-luciferase is constructed is described in Schoonjans, K., et al, J. Biol. Chem. 270, No. 33, 19269-19276 (Aug. 18, 1995). Use of PPRE-luciferase in a transient transfection to measure increase in promoter activity is disclosed in Subbaramaiah, K. et al, J. Biol. Chem. 270, No. 15, 12440-12448 (Apr. 13, […]).
For each well, 1.8 μg of PPRE3-tk-luciferase construct plasmid DNA (described in Forman, B. M., et al, Cell 83, 803 (1995)) plus 0.2 μg of pSV-β-galactosidase were introduced into cells using 8 μg of LipofectAMINE as per the manufacturer's instructions (Invitrogen, CA). After 7 h of incubation, the medium was replaced with basal medium. After transfection, cells were treated with test compound for 24 h. Reporter activities which include luciferase and β-galactosidase were measured in cellular extract 24 h later. Six wells were used for each of the conditions. Luciferase activity represents data that have been normalized with β-galactosidase.
The luciferase assay was performed as per the BD Pharmingen assay reagents. The Enhanced Luciferase Assay Kit provides a firefly luciferase substrate formulation (Substrates A and B) and cell lysis buffer intended for use in measuring luciferase expressed by transfected cells. Media from cell culture plates was removed and rinsed twice with phosphate buffered saline. Enough 1X cell lysis buffer was added to cover cells and incubated at room temperature for 15-20 min. Cells were dislodged by scraping and transferred to microcentrifuge tubes. […] 20-100 μl cell extract was placed into an assay cuvette. One automatic injector type luminometer is used for assay. Manually 100 μl of Substrate A was added to the assay cuvette and automatically 100 μl of Substrate B was injected. Measurements were performed using a luminometer, for a measurement time of 10 seconds.
The β-galactosidase assay was performed as follows:
50 μl of cell lysate from above was incubated with 50 μl of o-nitrophenyl-β-D-galactoside (ONPG; 4 mg/mL) in Z buffer, (Na2HPO4.7H2O (0.06M), NaH2PO4.H2O (0.04M), 1M KCl (0.01M), 1M MgSO4 (0.001M), β-mercaptoethanol (BME) (0.05M) pH 7.0). The reaction was stopped after sufficient yellow color has developed. The yellow color developed is measured at A420 […].

HER-2/neu = experiment: Western blotting for expression of HER-2/neu (test (b)); assay type: cell-based, human; details: positive in 184B5/HER, BT474 and SKBR3 cells; 24 h; Western blot
Excerpt: We turn now to the criterion (b), that is at least 50% decrease in level of or 50% downregulation of expression of Class I family of receptors tyrosine kinase. The Class I family of receptors tyrosine kinase is described in Reese, M. D., et al Stem Cells 15, pages 1-8 (1997), the whole of which in incorporated herein by reference. Members of the family include HER-2/neu, HER-3, HER-4 and epidermal growth factor receptor (EGFR) and are single-chain membrane spanning proteins which have significant homology to one another including about 80% amino acid identity in the tyrosine kinase domain.
HER-2/neu (erbB-2) gene product is a 185-kDA transmembrane receptor tyrosine kinase that is described in some detail in said Reese et al publication and overexpression thereof has been associated with tumor growth in several kinds of cancer.
To evaluate the expression of Class I family of receptors tyrosine kinase (EGFR, HER-2/neu), Western blotting can be performed. Antibodies for EGFR and HER-2/neu can be obtained from Santa Cruz Biotechnology, Inc.
Expression of EGFR (performed in 184B5, 184B5/HER, 1483, LNCaP, HeLa and CaSki cells)and HER-2/neu (performed in 184B5/HER, SKBR3 and BT474 cells) was assessed in cells after treatment with test compound for 24 hours. 5×10^6 cells were used for the treatment. Western blotting technique was used to assess the expression levels in cells treated with the test compound compared to vehicle alone. Western blotting was carried out as follows:
Cell lysates were prepared by treating cells with lysis buffer (150 mM NaCl, 100 mM Tris (pH 8.0), 1% Tween 20, 50 mM diethyldithiocarbamate, 1 mM EDTA, 1 mM phenylmethylsulfonyl fluoride, 10 μg/ml aprotinin, 10 μg/ml trypsin inhibitor and 10 μg/ml leupeptin). Lysates were sonicated for 20 s on ice and centrifuged at 10,000×g for 10 min to sediment the particulate material. The protein concentration of the supernatant was measured by the method of Lowry, O. H., et al., J. Biol. Chem. 193, 265-275 (195 1). SDS/PAGE was performed under reducing conditions on 10% polyacrylamide gels as described by Laemmli, U.K., Nature (Lond.) 227, 680-685 (1970). The resolved proteins were transferred onto nitrocellulose sheets as detailed by Towbin, H. et al., Proc. Natl. Acad. Sci. USA 76, 4350-4354 (1979). The nitrocellulose membrane was then incubated with anti-EGFR antiserum or anti-HER-2/neu antiserum. Secondary antibody to IgG conjugated to horseradish peroxidase was used. The various antisera were purchased from Santa Cruz Biotechnology, Inc., CA. The blots were probed with the Renaissance Western blot detection system according to the manufacturer's instructions (PerkinElmer Life Sciences, Boston, Mass.).

cyclin D1 = experiment: Western blotting for expression of cyclin D1 (test (c)); assay type: cell-based, human; details: positive in 184B5, 184B5/HER cells; 24 h; Western blot
Procedure: Cyclin D1 is a protein that is important in regulating cell proliferation and is described in Ortega, S., et al, Biochimica et Biophysica Acta 1602, 73-87, (2002), the whole of which is incorporated by reference. […] Effects on expression of cyclin D1 was investigated in 184B5, 184B5/HER, HCA7, HCT116, SKBR3 and BT474 cells. The expression was assessed in cells after treatment with test compound or vehicle using 5×10^4 cells for 24 hours. Western blotting technique was used as follows to assess the expression levels of cyclin D1 in cells treated with the test compound and compared to levels in cells treated with vehicle alone. Cell lysates were prepared by treating cells with lysis buffer as described above. […] The resolved proteins were transferred onto nitrocellulose sheets. The nitrocellulose membrane was then incubated with anti-cyclin D1 antiserum. Secondary antibody to IgG conjugated to horseradish peroxidase was used. The various antisera were purchased from Santa Cruz Biotechnology, Inc., CA. The blots were probed with the Renaissance Western blot detection system according to the manufacturer's instructions (PerkinElmer Life Sciences, Boston, Mass.).

[2] = test system: tcf/lef/β-catenin-mediated promoter activation; experiment: TOPflash/FOPflash reporter assay for tcf/lef/β-catenin-mediated promoter activation (test (f)); assay type: cell-based, human; details: positive in 184B5, 184B5/HER, HCA7, HCT116, SKBR3 and BT474 cells; 24 h
Excerpt: Tcf/lef/β-catenin is a transcription factor complex that has been implicated in the regulation of genes involved in carcinogenesis. Increased tcf/lef/β-catenin-mediated gene expression has been linked to pathogenesis of colon cancer. Tcf/lef/β-catenin is described in Barker, N., et al, Adv. Cancer Res. 77, 1-24 (2000), the whole of which is incorporated herein by reference.
Cells (cell lines were 184B5, 184B5/HER, HCA7, HCT116, SKBR3 and BT474) were split into 6 well dishes and the next day were transiently transfected using 8 μg of LipofectAMlNE as per the manufacturer's instructions (Invitrogen, CA). 1.8 μg/dish of the wildtype Tcf/Lef reporter plasmid TOP flash or the mutant plasmid FOP flash was transfected into the cells and 0.2 μg of pSV-β-galactosidase. FOPflash differs from TOPflash by the mutation of its Tcf binding sites and serves to differentiate Tef/-catenin-mediated signaling from background (Upstate Biotechnology, Inc.). Cells were incubated overnight and were treated for 24 hours with either vehicle or test compound. Luciferase activity in the extracts was measured as described above and was corrected for background by subtraction of FOP-FLASH values from corresponding TOP-FLASH values.

PTEN = experiment: Western and Northern blotting for expression of PTEN (test (e)); assay type: cell-based, human; details: positive in 184B5, 184B5/HER, HCA7, HCT116, SKBR3 and BT474 cells
Procedure: We turn now to criterion (e), i.e., at least 50% increase in expression of PTEN.
PTEN is a tumor suppressor that inhibits cell proliferation and induces programmed cell death. PTEN (also know as MMAC-1 or TEP-1) is described in Yamada, K. M., et al, Journal of Cell Science 114, 2375-2382, the whole of which is incorporated herein by reference.
Western blotting and Northern blotting techniques were used to evaluate the expression of PTEN. The expression of PTEN was evaluated in HCA7, HCT116, SKBR3, 184B5/HER, 184B5 and BT474 cells. 5×10^6cells were used to treat either vehicle alone or the test compound. The Western blotting analysis was performed as described above except anti-PTEN antibody was used to probe the blot. The antibody was obtained from Santa Cruz Biotechnology, Inc. CA. Northern blotting for PTEN was performed as described above and cDNA for PTEN as described in Tamura, M., et al, Science 5; 280 (5369):1614-1617 (1998), was used as a probe.

| Compound | Test (d) at least 50% downregulation of expression of HPV16 oncoproteins E6 and E7 [1] | Test (a) activation of PPRE luciferase by at least 100% (PPRE luciferase) | Test (b) HER-2/neu: at least 50% decrease in level of or 50% downregulation of expression (HER-2/neu) | Test (c) at least 50% downregulation of expression of cyclin D1 (cyclin D1) | Test (f) at least 50% inhibition of tcf/lef/β-catenin-mediated promoter activation [2] | Test (e) at least 50% increase in expression of PTEN (PTEN) |
| --- | --- | --- | --- | --- | --- | --- |
| 1-(p-chlorobenzoyl)-5-methoxy-2-methyl-1H-indole-3-octylacetamide [Indomethacin Analog 6] | + (A plus sign in the table indicates a positive result, that is meeting the test for each cell line as indicated above as providing a positive result) | + (A plus sign in the table indicates a positive result, that is meeting the test for each cell line as indicated above as providing a positive result) | – | – | – | – |
| COc1ccc2c(c1)c(CC(=O)NCCc1ccccc1)c(C)n2C(=O)c1ccc(Cl)cc1 [Indomethacin Analog 2, N-(2-phenylethyl)-indomethacin amide] | + (A plus sign in the table indicates a positive result, that is meeting the test for each cell line as indicated above as providing a positive result) | + (A plus sign in the table indicates a positive result, that is meeting the test for each cell line as indicated above as providing a positive result) | + (A plus sign in the table indicates a positive result, that is meeting the test for each cell line as indicated above as providing a positive result) | + (A plus sign in the table indicates a positive result, that is meeting the test for each cell line as indicated above as providing a positive result) | – | – |
| COc1ccc2c(c1)c(CC(=O)Nc1cccnc1)c(C)n2C(=O)c1ccc(Cl)cc1 [Indomethacin Analog 4, N-(3-pyridyl)-indomethacin amide] | + (A plus sign in the table indicates a positive result, that is meeting the test for each cell line as indicated above as providing a positive result) | + (A plus sign in the table indicates a positive result, that is meeting the test for each cell line as indicated above as providing a positive result) | – | – | + (A plus sign in the table indicates a positive result, that is meeting the test for each cell line as indicated above as providing a positive result) | + (A plus sign in the table indicates a positive result, that is meeting the test for each cell line as indicated above as providing a positive result) |
